Results taken from US20250332265A1, “PSMA TARGETED CONJUGATE COMPOUNDS AND USES THEREOF” (priority 2021, published 2025).

Legend:
[1] = tested on: PSMA-negative PC3flu cells; assay: In vitro cytotoxicity studies (CellTiter 96) with or without 690 nm light, PC3flu; assay type: cell-based, human
Experimental: PC3pip and PC3flu cells were plated at 3,000 cells/well in 96-well plates. Twenty-four hours later, drugs (PSMA-1-MMAE-IR700 or PSMA-1-IR700) of different concentrations were added. After incubation at 37° C. in the dark for 24 h, cell viability was determined by CellTiter 96© aqueous one solution cell proliferation assay using absorbance at 490 nm (Promega Biotech, Madison, […]). The concentration required to inhibit 50% of cell growth (IC50) was determined by GraphPad Prism 3.0. To test the cytotoxicity of PSMA-1-MMAE-TR700 with light irradiation, drugs at a final concentration of 5 nM were added to cells and incubated in the dark for 24 h. Cells were then washed 3 times with RMPI 1640 and then irradiated with 690 nm light (L690-66-60, Marubeni America Co, New York, NY). Cells were incubated in the dark for another 24 h. Cell viability was then determined by CellTiter 96© aqueous one solution cell proliferation assay (Promega Biotech, Madison, […]). The coefficient drug interaction (CDI) was calculated as follows: CDI=AB/(A×B), where AB is the ratio of the absorbance of combination treatment groups (PSMA-1-MMAE-IR700 with light irradiation) to the absorbance of control groups; A or B is the absorbance of single treatment group (PSMA-1-MMAE-IR700 without light or PSMA-1-IR700 with light irradiation) to the absorbance of control groups. […]

[2] = Stability in PBS, Example 2; assay type: physicochemical; settings: incubated at 37° C.
Excerpt: To synthesize PSMA-1-MMAE-IR700 (FIG. 6A), we used a self-immolative cathespsin cleavable Vc linker to conjugate MMAE to PSMA-1-Cys-C6-Lys. IR700 was conjugated to the PSMA-1 ligand through reaction of the Lys amine (—NH2) with NHS ester as no IR700 release is required for light activation. […] Degradation of PSMA-1-MMAE-IR700 led to release of free MMAE.

[3] = tested on: orthotopic PC3pipGFP tumors; assay: Detection of orthotopic tumor and lymph node metastases; assay type: in vivo, mice; settings: 100 nmol/kg, 1 h post injection
Experimental: Orthotopic PC3pipGFP prostate cancer models were established as previously described using green fluorescence protein (GFP) transfected PC3pip cells. Mice bearing orthotopic PC3pipGFP tumors were injected with 100 nmol/kg of PSMA-1-MMAE-IR700. Mice were imaged at 1 h post injection by Maestro using the yellow filter set for PSMA-1-MMAE-IR700 and blue filter set for GFP (excitation 445-490 nm, emission 515 nm longpass). Mice were then euthanized and primary tumor was removed to expose lymph nodes. The mice were imaged again. Resected primary tumor and lymph nodes were snap-frozen in optimal cutting temperature (OCT) compound and sectioned. The slides were subjected to hematoxylin and eosin (H&E) staining, and adjacent set of slides were counter stained with DAPI and observed under Leica DM4000B fluorescence microscope at 10× to visualize DAPI, GFP and PSMA-1-MMAE-IR700. Experiments were repeated in three mice.

[4] = tested on: PSMA-negative PC3flu cells; assay: In vitro uptake studies, Example 2, PC3flu; assay type: cell-based, human; settings: 50 nM
Experimental: (§1) Enzymatic cleavage study of PSMA-1-MMAE-IR700 was performed as previously described. PSMA-1-MMAE-IR700 was incubated with activated human liver cathespin (Anthens Research and Technology, Anthens, GA) at 37° C. At different incubation time, 40 μL of the solution was placed into tubes loaded with 1 μL of 1 mM E64 protease inhibitor. The mixture was vortexed and then stored at −80° C. for future HPLC analysis. Studies were performed in triplicate. In vitro cellular uptake studies cells were plated on coverslips at about 60-70% confluency. Twenty-four hours later, cells were incubated with 50 nM of PSMA-1-MMAE-IR700. After incubation for various times (15 min, 30 min, 1 h and 4 h), cells were washed twice with cold RPMI 1640, fixed with 4% paraformaldehyde and counterstained with 4′,6-diamidino-2-phenylindole (DAPI). Images were taken using a Leica DM4000B fluorescence microscope (Leica Biosystems, Buffalo Gove, IL) at 40×. Blocking experiments were performed by co-incubation of cells with 50 nM of PSMA-1-MMAE-IR700 and 100× of PSMA-1 ligand. Studies were performed in triplicate.

PC3pip tumors = assay: Immunofluorescent detection of apoptosis (caspase-3, H&E); assay type: in vivo, mice; settings: single dose, four days after the treatment
Excerpt: Animals bearing PC3pip tumors were divided into 7 groups: (1) mice receiving PBS; (2) mice receiving 100 nmol/kg PSMA-1-MMAE-IR700 with PDT; (3) mice receiving equal doses of PSMA-1-MMAE-IR700 to group 2, but not receiving PDT; (4) Mice receiving equal doses of PSMA-1-IR700 to group 2 with PDT treatment; (5) Mice receiving equal doses of PSMA-1-IR700 to group 2 without PDT; (6) mice receiving equal dose of PSMA-1-IR700 to group 2+free MMAE with PDT (MMAE normalized to that delivered by PSMA-1-MMAE-IR700); and (7) mice receiving equal dose of PSMA-1-IR700 to group 2+free MMAE without PDT. Animals were treated with one single dose and were sacrificed at 4-day post treatment. Tumors were snap-frozen in OCT, cut into 10 μm thick sections and fixed on slides. Induction of apoptosis by the treatment was determined by rabbit polyclonal anti-Caspase-3 antibody (Abcam, Cambridge, UK). A goat anti-rabbit polyclonal antibody labeled by Alexa Fluor-594 was used as secondary antibody (Abcam, Cambridge, UK). The presence of apoptosis was determined by fluorescence images under Leica DM4000B fluorescence microscope at 10×. H&E staining of tumor tissues was performed in adjacent sections to check the histology of the tumors. Experiments were repeated in 5 mice.

[5] = In vitro cytotoxicity studies (CellTiter 96) with or without 690 nm light, PC3pip; assay type: cell-based, human; settings: 24 h in the dark, no light; read-out: IC50 dark cytotoxicity, PC3pip cells
Experimental: (§2) PC3pip and PC3flu cells were plated at 3,000 cells/well in 96-well plates. Twenty-four hours later, drugs (PSMA-1-MMAE-IR700 or PSMA-1-IR700) of different concentrations were added. After incubation at 37° C. in the dark for 24 h, cell viability was determined by CellTiter 96© aqueous one solution cell proliferation assay using absorbance at 490 nm (Promega Biotech, Madison, […]). The concentration required to inhibit 50% of cell growth (IC50) was determined by GraphPad Prism 3.0. To test the cytotoxicity of PSMA-1-MMAE-TR700 with light irradiation, drugs at a final concentration of 5 nM were added to cells and incubated in the dark for 24 h. Cells were then washed 3 times with RMPI 1640 and then irradiated with 690 nm light (L690-66-60, Marubeni America Co, New York, NY). Cells were incubated in the dark for another 24 h. Cell viability was then determined by CellTiter 96© aqueous one solution cell proliferation assay (Promega Biotech, Madison, […]). The coefficient drug interaction (CDI) was calculated as follows: CDI=AB/(A×B), where AB is the ratio of the absorbance of combination treatment groups (PSMA-1-MMAE-IR700 with light irradiation) to the absorbance of control groups; A or B is the absorbance of single treatment group (PSMA-1-MMAE-IR700 without light or PSMA-1-IR700 with light irradiation) to the absorbance of control groups. CDI <1, =1 and >1 indicates synergistic, additive or antagonistic effect.

[6] = tested on: PSMA-positive PC3pip cells; assay: as above; assay type: cell-based, human; settings: for ratio of absorbance to control groups (cell viability): 5 nM, 24 h
Experimental: as §2

[7] = tested on: PSMA-positive PC3pip cells; assay: In vitro uptake studies, Example 2, PC3pip; assay type: cell-based, human; settings: 50 nM
Experimental: as §1

With `CC[C@H](C)[C@@H]([C@@H](CC(=O)N1CCC[C@H]1[C@H](OC)[C@@H](C)C(=O)N[C@H](C)[C@@H](O)c1ccccc1)OC)N(C)C(=O)[C@@H](NC(=O)[C@H](C(C)C)N(C)C(=O)OCc1ccc(NC(=O)[C@H](CCCNC(N)=O)NC(=O)[C@@H](NC(=O)CCCCCN2C(=O)CC(SC[C@H](NC(=O)[C@H](CCC(=O)O)NC(=O)[C@H](CCC(=O)O)NC(=O)[C@H](CCC(=O)O)NC(=O)CCCCCNC(=O)[C@H]3CC[C@H](CNC(=O)CC[C@H](NC(=O)N[C@@H](CCC(=O)O)C(=O)O)C(=O)O)CC3)C(=O)NCCCCCC(=O)N[C@@H](CCCCNC(=O)CCCCCNC(=O)OCCCOc3cccc4c5n6c(c34)=NC3=NC(=Nc4c7ccccc7c(n4[Si]6(O[Si](C)(C)CCC[N+](CCCS(=O)(=O)[O-])(CCCS(=O)(=O)O)CCCS(=O)(=O)O)O[Si](C)(C)CCC[N+](CCCS(=O)(=O)[O-])(CCCS(=O)(=O)O)CCCS(=O)(=O)O)N=C4N=C(N=5)c5ccccc54)c4ccccc43)C(N)=O)C2=O)C(C)C)cc1)C(C)C` (stereo partly drawn) [PSMA-1-MMAE-IR700] the “cell killing in PC3flu cells” value ([1]; 5 nM, with or without light) was “no effective cell killing”, the “IC50 dark cytotoxicity, PC3flu cells” value ([1]; 24 h in the dark, no light) was “no IC50 value was obtained” and the “stability in PBS” value [2] was “stable”. For the same compound, the “fluorescence signal in primary tumor and lymph node histology” value [3] was “only observed in cancer tissues”, the “fluorescence signal (uptake) in PC3flu cells” value [4] was “no fluorescence signal was observed” and the “apoptosis / necrotic damage in tumors, with PDT” value (PC3pip tumors) was “most aggressive necrotic damage and apoptosis”. The IC50 [5] was 8.42 ± 1.03 nM, the “ratio of absorbance to control groups (cell viability)” value (“ratio of absorbance to control groups” below) ([6]; 690 nm light 1 J/cm2) was 0.423 and the “ratio of absorbance to control groups” value ([6]; 690 nm light 3 J/cm2) was 0.208. For the same compound, the “ratio of absorbance to control groups” value ([6]; without light) was 0.892, the “coefficient drug interaction (CDI)” value ([6]; 1 J/cm2 light irradiation) was 0.609 and the “coefficient drug interaction (CDI)” value ([6]; 3 J/cm2 light irradiation) was 0.550. For the same compound, the “selectivity of killing PC3pip versus PC3flu cells” value ([6]; 72 h in the dark) was 50 fold, the “fluorescence signal (uptake) in PC3pip cells” value [7] was “observed as early as 15 min” and the “fluorescence signal in PC3pip cells with 100× of PSMA-1 ligand” value ([7]; co-incubation) was “completely blocked”.
